Test results as given in patent publication US20250129430A1, “HIGH ATP-AFFINITY PROTEIN AS THERAPEUTIC TARGET FOR INTRACTABLE CANCER MOLECULAR SUBTYPES AND INHIBITOR THEREOF” (VeraVerse Co., Ltd., priority 2021, published 2025).
Where a name gives a salt, the structure may show the parent alone.

Columns and labels:
Experiment in all cases: Cell viability drug screen, 12-point dose-response AUC
Format in all cases: cell-based, human
SNU484 = details: 72 hours; for Average Area Under the Viability Curve (AUC), AUC norm value: SNU484 cells (SEM subtype)
Method in brief: (§1)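 AUC comes from 12-point half-log dose–response curves, normalized to DMSO-treated cells and integrated trapezoidally, repeats averaged. Luminescent viability read after 72 h compound exposure at 37 °C; cells plated 5×10^3 per well 24 h before dosing.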

NCC59 = NCC59 cells, 72 hours
Method in brief: as §1

YCC3 = YCC3 cells, 72 hours
Method in brief: as §1

Hs746T = details: 72 hours; for Average Area Under the Viability Curve (AUC), AUC norm value: Hs746T cells (SEM subtype)
Method in brief: as §1

SNU1 = SNU1 cells, 72 hours
Method in brief: as §1

MKN28 = MKN28 cells, 72 hours
Method in brief: as §1

SNU620 = SNU620 cells, 72 hours
Method in brief: as §1

SNU668 = details: 72 hours; for Average Area Under the Viability Curve (AUC), AUC norm value: SNU668 cells (SEM subtype)
Method in brief: as §1

SNU601 = SNU601 cells, 72 hours
Method in brief: as §1

MKN74 = MKN74 cells, 72 hours
Method in brief: (§2)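 Dose-response AUC reflects 72 h drug exposure of gastric cancer cells in a 12-point, half-log format, with viability read by luminescence and normalized to DMSO (0.5%).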

NCC19 = NCC19 cells, 72 hours
Method in brief: as §1

SNU16 = SNU16 cells, 72 hours
Method in brief: as §1

SNU719 = SNU719 cells, 72 hours
Method in brief: as §2

MKN1 = MKN1 cells, 72 hours
Method in brief: as §1

NCC20 = NCC20 cells, 72 hours
Method in brief: as §1

MKN45 = details: 72 hours; for Average Area Under the Viability Curve (AUC), AUC norm value: MKN45 cells (non-SEM subtype)
Method in brief: as §2

NCC24 = NCC24 cells, 72 hours
Method in brief: as §1

SNU1967 = SNU1967 cells, 72 hours
Method in brief: as §1

OCUM1 = OCUM1 cells, 72 hours
Method in brief: as §1

KATO3 = KATO3 cells, 72 hours
Method in brief: as §1

NCI_N87 = NCI_N87 cells, 72 hours
Method in brief: as §1

YCC2 = YCC2 cells, 72 hours
Method in brief: as §1

YCC11 = details: 72 hours; for Average Area Under the Viability Curve (AUC), AUC norm value: YCC11 cells (SEM subtype)
Method in brief: as §1

AGS = details: 72 hours; for Average Area Under the Viability Curve (AUC), AUC norm value: AGS cells (non-SEM subtype)
Method in brief: as §2

SNU1750 = details: 72 hours; for Average Area Under the Viability Curve (AUC), AUC norm value: SNU1750 cells (SEM subtype)
Method in brief: as §1

SNU638 = SNU638 cells, 72 hours
Method in brief: as §1

SNU216 = details: 72 hours; for Average Area Under the Viability Curve (AUC), AUC norm value: SNU216 cells (non-SEM subtype)
Method in brief: as §2

SK4 = details: 72 hours; for Average Area Under the Viability Curve (AUC), AUC norm value: SK4 cells (SEM subtype)
Method in brief: as §1

FU97 = system: FU97; set-up: Average Area Under the Viability Curve (AUC), AUC norm value: scale not given here; details: FU97 cells, 72 hours
Method in brief: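 Trapezoidal AUC of a 12-point, DMSO-normalized dose-response curve. Luminescent viability was measured after 72 h of exposure at 37° C to half-log serial dilutions (0.5% DMSO control), dosed 24 h after plating FU97 cells at 5×10^3 per well.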

For `CC(C)C[C@H](NC(=O)CNC(=O)c1cc(Cl)ccc1Cl)B1OC(=O)C(CC(=O)O)(CC(=O)O)O1` [MLN9708], the “Average Area Under the Viability Curve (AUC), AUC norm value” (shortened to “Average Area Under the Viability Curve”) (SNU484) was −1.069, the “Average Area Under the Viability Curve” value (NCC59) was −0.3472 and the “Average Area Under the Viability Curve” value (YCC3) was 2.717. The “Average Area Under the Viability Curve” value (Hs746T) was −1.547, the “Average Area Under the Viability Curve” value (SNU1) was 0.02493 and the “Average Area Under the Viability Curve” value (MKN28) was 0.1368. For the same compound, the “Average Area Under the Viability Curve” value (SNU620) was −0.7036, the “Average Area Under the Viability Curve” value (SNU668) was 1.232 and the “Average Area Under the Viability Curve” value (SNU601) was 0. For the same compound, the “Average Area Under the Viability Curve” value (MKN74) was −0.4008, the “Average Area Under the Viability Curve” value (NCC19) was −0.7913 and the “Average Area Under the Viability Curve” value (SNU16) was −2.259. For the same compound, the “Average Area Under the Viability Curve” value (SNU719) was 1.304, the “Average Area Under the Viability Curve” value (MKN1) was 0.06734 and the “Average Area Under the Viability Curve” value (NCC20) was −1.527. The “Average Area Under the Viability Curve” value (MKN45) was 0.2581, the “Average Area Under the Viability Curve” value (NCC24) was −0.9085 and the “Average Area Under the Viability Curve” value (SNU1967) was −1.556. The “Average Area Under the Viability Curve” value (OCUM1) was 2.097, the “Average Area Under the Viability Curve” value (KATO3) was 0.559 and the “Average Area Under the Viability Curve” value (NCI_N87) was 1.9321. The “Average Area Under the Viability Curve” value (YCC2) was 0.3377, the “Average Area Under the Viability Curve” value (YCC11) was −1.824 and the “Average Area Under the Viability Curve” value (AGS) was −0.6988. The “Average Area Under the Viability Curve” value (SNU1750) was −2.161, the “Average Area Under the Viability Curve” value (SNU638) was 0.0059 and the “Average Area Under the Viability Curve” value (SNU216) was 0.1416. For the same compound, the “Average Area Under the Viability Curve” value (SK4) was 0.4078 and the “Average Area Under the Viability Curve” value (FU97) was −1.568.

For `O=C1c2c(O)ccc(O)c2C(=O)c2c(NCCNCCO)ccc(NCCNCCO)c21` [Mitoxantrone Hydrochloride], the “area under the viability curve (AUC), normalized” value (“area … normalized” for short) (SNU484; SNU484 cells, 12-point dose-response) was −1.158, the “area … normalized” value (NCC59; 12-point dose-response) was 1.001 and the “area … normalized” value (YCC3; 12-point dose-response) was 2.27. For the same compound, the “area … normalized” value (Hs746T; Hs746T cells, 12-point dose-response) was 0.5925, the “area … normalized” value (SNU1; 12-point dose-response) was 0 and the “area … normalized” value (MKN28; 12-point dose-response) was 1.616. The “area … normalized” value (SNU620; 12-point dose-response) was −0.6012, the “area … normalized” value (SNU668; SNU668 cells, 12-point dose-response) was −0.6581 and the “area … normalized” value (SNU601; 12-point dose-response) was −0.5251. For the same compound, the “area … normalized” value (MKN74; 12-point dose-response) was −0.2914, the “area … normalized” value (NCC19; 12-point dose-response) was 2.884 and the “area … normalized” value (SNU16; 12-point dose-response) was 1.6. For the same compound, the “area … normalized” value (SNU719; 12-point dose-response) was 3.647, the “area … normalized” value (MKN1; 12-point dose-response) was −1.197 and the “area … normalized” value (NCC20; 12-point dose-response) was −0.7422. For the same compound, the “area … normalized” value (MKN45; MKN45 cells, 12-point dose-response) was 2.014, the “area … normalized” value (NCC24; 12-point dose-response) was −1.038 and the “area … normalized” value (SNU1967; 12-point dose-response) was −1.342. The “area … normalized” value (OCUM1; 12-point dose-response) was 0.8078, the “area … normalized” value (KATO3; 12-point dose-response) was 4.807 and the “area … normalized” value (NCI_N87; 12-point dose-response) was 2.6755. The “area … normalized” value (YCC2; 12-point dose-response) was 0.5126, the “area … normalized” value (YCC11; YCC11 cells, 12-point dose-response) was −1.252 and the “area … normalized” value (AGS; AGS cells, 12-point dose-response) was −1.671. The “area … normalized” value (SNU1750; SNU1750 cells, 12-point dose-response) was −0.3587, the “area … normalized” value (SNU638; 12-point dose-response) was −1.06 and the “area … normalized” value (SNU216; SNU216 cells, 12-point dose-response) was 1.1656. For the same compound, the “area … normalized” value (SK4; SK4 cells, 12-point dose-response) was −0.6127 and the “area … normalized” value (FU97; 12-point dose-response) was 0.4542.

`CCOc1cc2ncc(C#N)c(Nc3ccc(OCc4ccccn4)c(Cl)c3)c2cc1NC(=O)/C=C/CN(C)C` [Neratinib (HKI-272), Neratinib] was tested, and the “Average Area Under the Viability Curve” value (SNU484) was −1.2895, the “Average Area Under the Viability Curve” value (NCC59) was 1.9785 and the “Average Area Under the Viability Curve” value (YCC3) was 0.3013. For the same compound, the “Average Area Under the Viability Curve” value (Hs746T) was −0.2204, the “Average Area Under the Viability Curve” value (SNU1) was 1.038 and the “Average Area Under the Viability Curve” value (MKN28) was 0.1864. The “Average Area Under the Viability Curve” value (SNU620) was 1.117, the “Average Area Under the Viability Curve” value (SNU668) was 0.8456 and the “Average Area Under the Viability Curve” value (SNU601) was 0.802. For the same compound, the “Average Area Under the Viability Curve” value (MKN74) was −1.144, the “Average Area Under the Viability Curve” value (NCC19) was 2.052 and the “Average Area Under the Viability Curve” value (SNU16) was −1.491. The “Average Area Under the Viability Curve” value (SNU719) was 1.894, the “Average Area Under the Viability Curve” value (MKN1) was −0.4985 and the “Average Area Under the Viability Curve” value (NCC20) was −1.6785. For the same compound, the “Average Area Under the Viability Curve” value (MKN45) was 3.029, the “Average Area Under the Viability Curve” value (NCC24) was 1.205 and the “Average Area Under the Viability Curve” value (SNU1967) was 0.8381. For the same compound, the “Average Area Under the Viability Curve” value (OCUM1) was 1.056, the “Average Area Under the Viability Curve” value (KATO3) was 1.505 and the “Average Area Under the Viability Curve” value (NCI_N87) was −5.051. The “Average Area Under the Viability Curve” value (YCC2) was −0.1749, the “Average Area Under the Viability Curve” value (YCC11) was −1.333 and the “Average Area Under the Viability Curve” value (AGS) was −0.9315. The “Average Area Under the Viability Curve” value (SNU1750) was −0.4123, the “Average Area Under the Viability Curve” value (SNU638) was 0 and the “Average Area Under the Viability Curve” value (SNU216) was −2.1011. The “Average Area Under the Viability Curve” value (SK4) was −1.282 and the “Average Area Under the Viability Curve” value (FU97) was −0.2016.
